According to patent US7102009B2, “Substituted amine derivatives and methods of use” (Amgen Inc., priority 2001, dated 2006):

Test system: Human Umbilical Vein Endothelial cells (VEGF-stimulated HUVEC proliferation)
Assay: HUVEC Proliferation Assay (VEGF-stimulated)
Format: cell-based
Settings: VEGF 50 ng/mL, 72 h incubation, CyQuant readout, read-out: inhibited VEGF-stimulated HUVEC proliferation at a level below (IC50)
Description: Human Umbilical Vein Endothelial cells are purchased from Clonetics, Inc., as cryopreserved cells harvested from a pool of donors. These cells, at passage 1, are thawed and expanded in EBM-2 complete medium, until passage 2 or 3. The cells are trypsinized, washed in DMEM+10% FBS+antibiotics, and spun at 1000 rpm for 10 min. Prior to centrifugation of the cells, a small amount is collected for a cell count. After centrifugation, the medium is discarded, and the cells are resuspended in the appropriate volume of DMEM+10% FBS+antibiotics to achieve a concentration of 3×10^5 cells/mL. Another cell count is performed to confirm the cell concentration. The cells are diluted to 3×10^4 cells/mL in DMEM+10% FBS+antibiotics, and 100 μL of cells are added to a 96-well plate. The cells are incubated at 37° C. for 22 h.
Prior to the completion of the incubation period, compound dilutions are prepared. Five-point, five-fold serial dilutions are prepared in DMSO, at concentrations 400-fold greater than the final concentrations desired. 2.5 μL of each compound dilution are diluted further in a total of 1 mL DMEM+10% FBS+antibiotics (400× dilution). Medium containing 0.25% DMSO is also prepared for the 0 μM compound sample. At the 22-hour timepoint, the medium is removed from the cells, and 100 μL of each compound dilution is added. The cells are incubated at 37° C. for 2-3 h.
During the compound pre-incubation period, the growth factors are diluted to the appropriate concentrations. Solutions of DMEM+10% FBS+antibiotics, containing either VEGF or bFGF at the following concentrations: 50, 10, 2, 0.4, 0.08, and 0 ng/mL are prepared. For the compound-treated cells, solutions of VEGF at 550 ng/mL or bFGF at 220 ng/mL for 50 ng/mL or 20 ng/mL final concentrations, respectively, are prepared since 10 μL of each will be added to the cells (110 μL final volume). At the appropriate time after adding the compounds, the growth factors are added. VEGF is added to one set of plates, while bFGF is added to another set of plates. For the growth factor control curves, the media on wells B4-G6 of plates 1 and 2 are replaced with media containing VEGF or bFGF at the varying concentrations (50-0 ng/mL). The cells are incubated at 37° C. for an additional 72 h.
At the completion of the 72 h incubation period, the medium is removed, and the cells are washed twice with PBS. After the second wash with PBS, the plates are tapped gently to remove excess PBS, and the cells are placed at −70° C. for at least 30 min. The cells are thawed and analyzed using the CyQuant fluorescent dye (Molecular Probes C-7026), following the manufacturer's recommendations. The plates are read on a Victor/Wallac 1420 workstation at 485 nm/530 nm (excitation/emission). Raw data are collected and analyzed using a 4-parameter fit equation in XLFit. IC50 values are then determined.

Which IC50 does the source give for `O=C(Nc1ccc(C(OC[C@@H]2CCCN2)(C(F)(F)F)C(F)(F)F)cc1)c1cccnc1Nc1ccc2cn[nH]c2c1` [Example 607, 2-(1H-Indazol-6-ylamino)-N-{4-[2,2,2-trifluoro-1-(pyrrolidin-2-ylmethoxy)-1-trifluoromethyl-ethyl]-phenyl}-nicotinamide] here?
The IC50 was < 50 nM.

`CN(C)CCCc1cc(NC(=O)c2cccnc2Nc2ccc3cn[nH]c3c2)cc(C(F)(F)F)c1` [Example 51, N-{3-[3-(Dimethylamino)propyl]-5-(trifluoromethyl)phenyl}[2-(1H-indazol-6-ylamino)(3-pyridyl)]carboxamide] was tested. Which IC50 did it give?
The IC50 was < 50 nM.

Which IC50 does the source give for `CN1CCC(COc2cc(NC(=O)c3cccnc3Nc3ccc4cn[nH]c4c3)ccc2C(F)(F)C(F)(F)F)CC1` [Example 78, 2-(1H-Indazol-6-ylamino)-N-[3-(1-methyl-piperidin-4-ylmethoxy)-4-pentafluoroethyl-phenyl]-nicotinamide] here?
Its IC50 is < 50 nM.

With `CC(C)(C)c1cccc(NC(=O)c2cccnc2Nc2ccc3cn[nH]c3c2)c1` [Example 10, N-[3-(tert-Butyl)phenyl][2-(1H-indazol-6-ylamino)(3-pyridyl)]carboxamide] as the compound, how does the IC50 read?
The IC50 was < 50 nM.

`CC1(C)CN(C(=O)[C@@H]2CCCN2)c2cc(NC(=O)c3cccnc3Nc3ccc4cn[nH]c4c3)ccc21` [Example 631, N-[3,3-Dimethyl-1-(pyrrolidine-2-carbonyl)-2,3-dihydro-1H-indol-6-yl]-2-(1H-indazol-6-ylamino)-nicotinamide] was tested. Which IC50 did it give?
The IC50 was < 50 nM.

How did the IC50 turn out when `CC(C)N1CCC(COc2cc(NC(=O)c3cccnc3Nc3ccc4cn[nH]c4c3)ccc2C(F)(F)C(F)(F)F)CC1` [Example 79, 2-(1H-Indazol-6-ylamino)-N-[3-(1-isopropyl-piperidin-4-ylmethoxy)-4-pentafluoroethyl-phenyl]-nicotinamide] was run?
Its IC50 is < 50 nM.

Which IC50 does the source give for `O=C(Nc1ccc2c(c1)-c1nncn1CC2)c1cccnc1Nc1ccc2cn[nH]c2c1` [Example 39, [2-(1H-Indazol-6-ylamino)(3-pyridyl)]-N-(5,6,7-trihydro-1,2,4-triazolo[3,4-a]isoquinolin-2-yl)carboxamide] here?
The IC50 was < 50 nM.

With `CC(C)(C)c1ccc(NC(=O)c2cccnc2Nc2ccc3cn[nH]c3c2)cc1CCCN1CCCCC1` [Example 54, N-[4-(tert-Butyl)-3-(3-piperidylpropyl)phenyl][2-(1H-indazol-6-ylamino)(3-pyridyl)]carboxamide] as the compound, how does the IC50 read?
Its IC50 is < 50 nM.

How did the IC50 turn out when `CN1CCC(C(C)(C)c2ccc(NC(=O)c3cccnc3Nc3cccc4c3CNC4=O)cc2)CC1` [Example 603, N-{4-[1-Methyl-1-(1-methyl-piperidin-4-yl)-ethyl]-phenyl}-2-(1-oxo-2,3-dihydro-1H-isoindol-4-ylamino)-nicotinamide] was run?
The IC50 was < 50 nM.

`CC(C)(C)c1ccc(NC(=O)c2cccnc2Nc2ccc3cn[nH]c3c2)cc1N1CCNCC1` [Example 98, N-(4-tert-Butyl-3-piperazin-1-yl-phenyl)-2-(1H-indazol-6-ylamino)-nicotinamide] was tested. Which IC50 did it give?
The IC50 was < 50 nM.

How did the IC50 turn out when `COCCOCCOC(c1ccc(NC(=O)c2cccnc2Nc2ccc3cn[nH]c3c2)cc1)(C(F)(F)F)C(F)(F)F` [Example 64] was run?
Its IC50 is < 50 nM.

With `CC(C)(C)c1ccc(NC(=O)c2cccnc2Nc2ccc3cn[nH]c3c2)cc1OCC1CCNCC1` [Example 93, N-[4-tert-Butyl-3-(piperidin-4-ylmethoxy)-phenyl]-2-(1H-indazol-6-ylamino)-nicotinamide] as the compound, how does the IC50 read?
The IC50 was < 50 nM.

How did the IC50 turn out when `O=C(Nc1ccc2ccn(CCN3CCOCC3)c2c1)c1cccnc1Nc1ccc2cn[nH]c2c1` [Example 62, [2-(1H-Indazol-6-ylamino)(3-pyridyl)]-N-[1-(2-morpholin-4-ylethyl)indol-6-yl]carboxamide] was run?
Its IC50 is < 50 nM.

How did the IC50 turn out when `O=C(Nc1cccc(C(O)(C(F)(F)F)C(F)(F)F)c1)c1cccnc1Nc1cccc2c1CNC2=O` [Example 609, 2-(1-Oxo-2,3-dihydro-1H-isoindol-4-ylamino)-N-[3-(2,2,2-trifluoro-1-hydroxy-1-trifluoromethyl-ethyl)-phenyl]-nicotinamide] was run?
The IC50 was < 50 nM.
